Source: patent publication US20250188417A1, “CARDIOMYOCYTES AND COMPOSITIONS AND METHODS FOR PRODUCING THE SAME” (President and Fellows of Harvard College, priority 2021, published 2025)
“Also recorded” adds a separate entry of the source.

How the values were obtained:
iPSC-CMs [1] = assay: qPCR of PPARGC1a mRNA in iPSC-CMs treated in 3D culture; type: cell-based, human; conditions: 200 μM for 3 days, FIG. 5
Experimental: (§1) The UCSD142i-86-1 cell line was used to generate preliminary data. UCSD142i-86-1 cells were differentiated into cardiomyocytes according to previously published protocols (9) adapted to three-dimensional culture in the laboratory. Two days after onset of beating (around day 9 of differentiation), cardiomyocytes were treated with vehicle (DMSO) or different concentrations of quercetin for different time periods. Cells were harvested for qPCR, western, or flow cytometry at different time points.

iPSC-CMs [2] = assay: Flow cytometry of marker expression and live cells in iPSC-CMs treated in 3D culture; type: cell-based, human; conditions: for percentage of TNNT2+ iPSC-CMs expressing Kir2.1: FIG. 2E / FIG. 3A; for mean fluorescence intensity (MFI) of Kir2.1: FIG. 2F / FIG. 3B; for % of p53+ TNNT2+ iPSC-CMs: FIG. 2G / FIG. 3C; for mean fluorescence intensity of p53: FIG. 3D; for expression of Kir2.1 / expression of p53: treatment of iPSC-CMs in 3D culture
Experimental: as §1

senescent tumor cells = conditions: literature reference; cited from earlier work
cardiomyocytes = assay: Flow cytometry in 2D culture (TNNT2, MitoTracker Red CMXRos, superoxide signal); type: cell-based, human; conditions: FACS, FIG. 8
Source text: FACS N=3/group, MitoTracker Red CMXRos flow cytometry, 1-way ANOVA with Tukey's multiple comparisons test.
Reactive oxygen species may regulate cardiomyocyte maturation. FACS, n=3/group.

BJRiPS-CMs = assay: Western blot and densitometry (MDM2, p53, TNNI3) and cell cycle analysis of BJRiPS-derived cardiomyocytes; type: cell-based, human
Experimental: FIG. 6A provides a schematic showing proposed mechanism of cardiomyocyte maturation. T3, triiodothyronine. […] FIG. 6C provides representative Western blot of MDM2, p53, TNNI3, and β-tubulin from BJRiPS-derived cardiomyocyte lysates treated with control (DMSO), nutlin-3a Å˜24 hours (10 μmol/L), Torin1 Å˜7 days (200 nmol/L), or Torin1 Å˜7 days (200 nmol/L)+nutlin-3a (10 μmol/L) for 24 hours beginning ≈2 days after onset of beating (nutlin-3a was only administered during the first 24 hours of Torin1 treatment). Cells harvested on final day of treatment, BJRiPS-CMs. […] DMSO indicates dimethylsulfoxide; mTOR, mechanistic target of rapamycin; and TNNT2+ BJRiPS-CMs, troponin T2, cardiac type-positive BJ fibroblast-derived RNA-induced pluripotent stem cell-derived cardiomyocytes.
FIG. 14A provides representative western blot of p53, phospho-53, p21 (CDKN1a), GATA4, NKX2.5, and β-tubulin from Gibco iPS-CM lysates treated with 0 (DMSO), 10, 50, or 200 nM Torin1 for 7 days starting ˜2 days after onset of beating. Cells harvested on final day of treatment. FIG. 14B provides cell cycle analysis showing percentage of TNNT2+ BJRiPS-CMs in G0, G1 or S/G2/M phases after treatment with vehicle (DMSO, dimethylsulfoxide), pifithrin-α (10 μM) for 1 week, Torin1 (200 nM) for 7 days or simultaneous treatment with pifithrin-α (10 μM) and Torin1 (200 nM) for 7 days starting ˜2 days after onset of beating. n=3 per group, *p<0.05, **p<0.01, ***p<0.001, ****p<0.0001 by two-way ANOVA with Tukey's multiple comparisons test. FIG. 14C provides representative western blot of p53, TNNI3, p21, and β-tubulin from BJRiPS-derived cardiomyocyte lysates treated with control (DMSO), Torin1 (200 nM), pifithrin-α (10 PM) or Torin1 (200 nM)+pifithrin-α (10 μM) for 7 days beginning ˜2 days after onset of beating. Cells harvested on final day of treatment.

Structure (SMILES) | mRNA expression of PPARGC1a (iPSC-CMs [1]) | percentage of live cells (iPSC-CMs [2]; 200 μM, 2 or 5 day treatment, 3D culture, flow cytometry, FIG. 4A) | percentage of TNNT2+ iPSC-CMs expressing Kir2.1 (iPSC-CMs [2]; 3D culture, flow cytometry) | mean fluorescence intensity (MFI) of Kir2.1 (iPSC-CMs [2]; 3D culture, flow cytometry) | % of p53+ TNNT2+ iPSC-CMs (iPSC-CMs [2]; 3D culture, flow cytometry) | mean fluorescence intensity of p53 (iPSC-CMs [2]; 3D culture, flow cytometry) | iPSC-CM maturation (iPSC-CMs [2]; 3D suspension culture, preliminary data) | percentage of TNNT2+ cells out of live cells (cardiomyocytes) (iPSC-CMs [2]; 2 day treatment at 20 or 200 μM, 3D culture, flow cytometry, FIG. 4B) | expression of Kir2.1 (iPSC-CMs [2]) | expression of p53 (iPSC-CMs [2]) | apoptosis in senescent tumor cells (senescent tumor cells) | mean fluorescence intensity of superoxide signal (cardiomyocytes) | percentage of TNNT2+ iPSC-CMs (iPSC-CMs [2]; 3D culture, flow cytometry, FIG. 2A) | mean fluorescence intensity (MFI) of TNNT2 (iPSC-CMs [2]; 3D culture, flow cytometry, FIG. 2B) | % of TNNI3+ (iPSC-CMs [2]; 3D culture, flow cytometry, FIG. 2C) | mean fluorescence intensity of TNNI3 (iPSC-CMs [2]; 3D culture, flow cytometry, FIG. 2D) | TNNI3 expression, effect together with Torin1 (BJRiPS-CMs; nutlin-3a 10 μmol/L during first 24 hours of Torin1 200 nmol/L for 7 days) | p53 (Western analysis) (BJRiPS-CMs; nutlin-3a 10 μmol/L for 24 hours) | TNNI3 expression (BJRiPS-CMs; nutlin-3a 10 μmol/L for 24 hours, about 2 days after onset of beating, Western densitometry)
O=c1c(O)c(-c2ccc(O)c(O)c2)oc2cc(O)cc(O)c12 [quercetin] | increases; also recorded: significantly increased | decreases | increases | increases | increases | increases | can enhance | increases | increases | increases | can induce apoptosis |  |  |  |  |  |  |  | 
COc1ccc(C2=N[C@@H](c3ccc(Cl)cc3)[C@@H](c3ccc(Cl)cc3)N2C(=O)N2CCNC(=O)C2)c(OC(C)C)c1 [nutlin-3a] |  |  | increases | increases | increases | increases |  |  | increases | increases |  | increases | increases | increases | increases | increases | synergistic effect | upregulation | enhances
